Measurements published in patent US9708314B2, “Heterocyclic amide compound” (NISSAN CHEMICAL INDUSTRIES, LTD., priority 2013, dated 2017).

What was measured:
Assay type in all cases: in vivo
[1] = system: Echinochloa oryzacola Vasing.; experiment: Test Example 1: herbicidal activity, application before weed generation in submerged conditions; settings: Application herbicide amount 320 g/ha; Seventeenth Table
How it was run: (§1)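 Submerged pot test: alluvial soil, 4 cm water, seeds sown mixed, 2.5-leaf rice transplanted; emulsion in water applied to surface day of sowing, dose g/ha; greenhouse 25–30° C.; 3 wk; 0–5 rating.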

[2] = system: Scirpus juncoides; experiment: as above; settings: Application herbicide amount 320 g/ha; Seventeenth Table
How it was run: as §1

[3] = system: Monochoria vaginalis; experiment: as above; settings: Application herbicide amount 320 g/ha; Seventeenth Table
How it was run: as §1

[4] = system: transplanted Oryza sativa; experiment: Test Example 1: effect on crop, application before weed generation in submerged conditions; settings: Application herbicide amount 320 g/ha; Seventeenth Table
How it was run: as §1

[5] = system: Veronica persica; experiment: Test Example 4: herbicidal effect by application to foliage (diluvial soil, plastic box); settings: Application herbicide amount 320 g/ha
How it was run: (§2)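 Read-out is a 0–5 visual grade of herbicidal ratio (5: ≥90%, almost withered; 0: ≤5%) taken three weeks after treatment. Compound was applied as a diluted emulsion to stem and leaf parts of 14-day greenhouse-grown plants (25° C. to 30° C.) at rates expressed as g/ha.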

[6] = system: Alopecurus myosuroides; experiment: as above; settings: Application herbicide amount 320 g/ha
How it was run: as §2

[7] = system: Echinochloa crus-galli var. crus-galli; experiment: as above; settings: Application herbicide amount 320 g/ha
How it was run: as §2

[8] = system: Lolium multiflorum Lam.; experiment: as above; settings: Application herbicide amount 320 g/ha
How it was run: as §2

[9] = system: Digitaria ciliaris; experiment: as above; settings: Application herbicide amount 320 g/ha
How it was run: as §2

[10] = system: Apera spica-venti.; experiment: as above; settings: Application herbicide amount 320 g/ha
How it was run: as §2

[11] = system: Setaria viridis; experiment: as above; settings: Application herbicide amount 320 g/ha
How it was run: as §2

[12] = system: Galium spurium; experiment: as above; settings: Application herbicide amount 320 g/ha
How it was run: as §2

[13] = system: Chenopodium album; experiment: as above; settings: Application herbicide amount 320 g/ha
How it was run: as §2

[14] = system: Avena fatua; experiment: as above; settings: Application herbicide amount 320 g/ha
How it was run: as §2

[15] = system: Abutilon theophrasti; experiment: as above; settings: Application herbicide amount 320 g/ha
How it was run: as §2

| Compound | A: Echinochloa oryzicola Vasing. (herbicidal effect grade) [1] | B: Scirpus juncoides (herbicidal effect grade) [2] | C: Monochoria vaginalis (herbicidal effect grade) [3] | a: transplanted Oryza sativa (effect on crop grade) [4] | R [5] | J [6] | H [7] | K [8] | F [9] | L [10] | G [11] | Q [12] | O [13] | I [14] | M [15] |
| --- | --- | --- | --- | --- | --- | --- | --- | --- | --- | --- | --- | --- | --- | --- | --- |
| Cc1nnc(NC(=O)c2ccc(C(F)(F)C(F)(F)F)n3c(C(C)C)nnc23)o1 [1-066] | 5 (Herbicidal ratio of 90% or more (almost completely withered)) | 4 (Herbicidal ratio of 70% or more and less than 90%) | 2 (Herbicidal ratio of 20% or more and less than 40%) | 2 (Herbicidal ratio of 20% or more and less than 40%) | 4 (Herbicidal ratio of 70% or more and less than 90%) | 0 (Herbicidal ratio of 5% or less (almost no effect)) | 4 (Herbicidal ratio of 70% or more and less than 90%) | 0 (Herbicidal ratio of 5% or less (almost no effect)) | 3 (Herbicidal ratio of 40% or more and less than 70%) | 0 (Herbicidal ratio of 5% or less (almost no effect)) | 1 (Herbicidal ratio of 5% or more and less than 20%) | 1 (Herbicidal ratio of 5% or more and less than 20%) | 5 (Herbicidal ratio of 90% or more (almost completely withered)) | 1 (Herbicidal ratio of 5% or more and less than 20%) | 3 (Herbicidal ratio of 40% or more and less than 70%) |
| Cc1nnc(NC(=O)c2ccc(C(F)(F)F)n3c(CO)nnc23)o1 [1-067] | 3 (Herbicidal ratio of 40% or more and less than 70%) | 0 (Herbicidal ratio of 5% or less (almost no effect)) | 0 (Herbicidal ratio of 5% or less (almost no effect)) | 0 (Herbicidal ratio of 5% or less (almost no effect)) | 4 (Herbicidal ratio of 70% or more and less than 90%) | 0 (Herbicidal ratio of 5% or less (almost no effect)) | 5 (Herbicidal ratio of 90% or more (almost completely withered)) | 0 (Herbicidal ratio of 5% or less (almost no effect)) | 5 (Herbicidal ratio of 90% or more (almost completely withered)) | 0 (Herbicidal ratio of 5% or less (almost no effect)) | 4 (Herbicidal ratio of 70% or more and less than 90%) | 3 (Herbicidal ratio of 40% or more and less than 70%) | 5 (Herbicidal ratio of 90% or more (almost completely withered)) | 1 (Herbicidal ratio of 5% or more and less than 20%) | 4 (Herbicidal ratio of 70% or more and less than 90%) |
| Cc1nnc(NC(=O)c2ccc(C(F)(F)F)n3c(C=O)nnc23)o1 [1-068] | 2 (Herbicidal ratio of 20% or more and less than 40%) | 3 (Herbicidal ratio of 40% or more and less than 70%) | 3 (Herbicidal ratio of 40% or more and less than 70%) | 0 (Herbicidal ratio of 5% or less (almost no effect)) | 4 (Herbicidal ratio of 70% or more and less than 90%) | 1 (Herbicidal ratio of 5% or more and less than 20%) | 5 (Herbicidal ratio of 90% or more (almost completely withered)) | 1 (Herbicidal ratio of 5% or more and less than 20%) | 5 (Herbicidal ratio of 90% or more (almost completely withered)) | 1 (Herbicidal ratio of 5% or more and less than 20%) | 4 (Herbicidal ratio of 70% or more and less than 90%) | 3 (Herbicidal ratio of 40% or more and less than 70%) | 5 (Herbicidal ratio of 90% or more (almost completely withered)) | 1 (Herbicidal ratio of 5% or more and less than 20%) | 3 (Herbicidal ratio of 40% or more and less than 70%) |
| Cc1nnc(NC(=O)c2ccc(C(F)(F)F)n3c(-c4cc(Cl)cc(Cl)c4)nnc23)o1 [1-071] | 4 (Herbicidal ratio of 70% or more and less than 90%) | 5 (Herbicidal ratio of 90% or more (almost completely withered)) | 4 (Herbicidal ratio of 70% or more and less than 90%) | 0 (Herbicidal ratio of 5% or less (almost no effect)) | 3 (Herbicidal ratio of 40% or more and less than 70%) | 0 (Herbicidal ratio of 5% or less (almost no effect)) | 0 (Herbicidal ratio of 5% or less (almost no effect)) | 0 (Herbicidal ratio of 5% or less (almost no effect)) | 1 (Herbicidal ratio of 5% or more and less than 20%) | 0 (Herbicidal ratio of 5% or less (almost no effect)) | 0 (Herbicidal ratio of 5% or less (almost no effect)) | 1 (Herbicidal ratio of 5% or more and less than 20%) | 5 (Herbicidal ratio of 90% or more (almost completely withered)) | 0 (Herbicidal ratio of 5% or less (almost no effect)) | 3 (Herbicidal ratio of 40% or more and less than 70%) |
| Cc1nnc(NC(=O)c2cc(C)c(C(F)(F)F)n3c(C(C)C)nnc23)o1 [1-075] | 2 (Herbicidal ratio of 20% or more and less than 40%) | 0 (Herbicidal ratio of 5% or less (almost no effect)) | 2 (Herbicidal ratio of 20% or more and less than 40%) | 0 (Herbicidal ratio of 5% or less (almost no effect)) | 3 (Herbicidal ratio of 40% or more and less than 70%) | 0 (Herbicidal ratio of 5% or less (almost no effect)) | 3 (Herbicidal ratio of 40% or more and less than 70%) | 0 (Herbicidal ratio of 5% or less (almost no effect)) | 3 (Herbicidal ratio of 40% or more and less than 70%) | 0 (Herbicidal ratio of 5% or less (almost no effect)) | 1 (Herbicidal ratio of 5% or more and less than 20%) | 0 (Herbicidal ratio of 5% or less (almost no effect)) | 5 (Herbicidal ratio of 90% or more (almost completely withered)) | 0 (Herbicidal ratio of 5% or less (almost no effect)) | 1 (Herbicidal ratio of 5% or more and less than 20%) |
| Cc1nnc(NC(=O)c2ccc(C(F)(F)F)n3c(N(C)C)nnc23)o1 [1-076] | 5 (Herbicidal ratio of 90% or more (almost completely withered)) | 4 (Herbicidal ratio of 70% or more and less than 90%) | 4 (Herbicidal ratio of 70% or more and less than 90%) | 3 (Herbicidal ratio of 40% or more and less than 70%) | 4 (Herbicidal ratio of 70% or more and less than 90%) | 3 (Herbicidal ratio of 40% or more and less than 70%) | 5 (Herbicidal ratio of 90% or more (almost completely withered)) | 3 (Herbicidal ratio of 40% or more and less than 70%) | 5 (Herbicidal ratio of 90% or more (almost completely withered)) | 4 (Herbicidal ratio of 70% or more and less than 90%) | 5 (Herbicidal ratio of 90% or more (almost completely withered)) | 2 (Herbicidal ratio of 20% or more and less than 40%) | 5 (Herbicidal ratio of 90% or more (almost completely withered)) | 3 (Herbicidal ratio of 40% or more and less than 70%) | 4 (Herbicidal ratio of 70% or more and less than 90%) |
| C#CC[S+]([O-])c1nnc2c(C(=O)Nc3nnc(C)o3)ccc(C(F)(F)F)n12 (stereo not drawn) [1-077] | 0 (Herbicidal ratio of 5% or less (almost no effect)) | 0 (Herbicidal ratio of 5% or less (almost no effect)) | 2 (Herbicidal ratio of 20% or more and less than 40%) | 0 (Herbicidal ratio of 5% or less (almost no effect)) | 3 (Herbicidal ratio of 40% or more and less than 70%) | 0 (Herbicidal ratio of 5% or less (almost no effect)) | 4 (Herbicidal ratio of 70% or more and less than 90%) | 0 (Herbicidal ratio of 5% or less (almost no effect)) | 4 (Herbicidal ratio of 70% or more and less than 90%) | 0 (Herbicidal ratio of 5% or less (almost no effect)) | 2 (Herbicidal ratio of 20% or more and less than 40%) | 1 (Herbicidal ratio of 5% or more and less than 20%) | 5 (Herbicidal ratio of 90% or more (almost completely withered)) | 0 (Herbicidal ratio of 5% or less (almost no effect)) | 2 (Herbicidal ratio of 20% or more and less than 40%) |
